One assay deals with Estrogen receptor beta (Homo sapiens, UniProt Q92731). Put plainly: Inhibition of fluormone ES2 binding to estrogen receptor beta after 1 hr by fluorescence polarization assay. In general terms: In fluorescence polarisation assays a small probe gives low polarisation when free and higher when bound to something large.
Another assay is filed under the species Rattus norvegicus. Briefly: animal or person. In kind it is functional. The following applies: Uterus, 72 h, route oral.
Assay [1] has as its target T1, Estrogen receptor (Homo sapiens, UniProt P03372).
T1 sequence (P03372 whole entry): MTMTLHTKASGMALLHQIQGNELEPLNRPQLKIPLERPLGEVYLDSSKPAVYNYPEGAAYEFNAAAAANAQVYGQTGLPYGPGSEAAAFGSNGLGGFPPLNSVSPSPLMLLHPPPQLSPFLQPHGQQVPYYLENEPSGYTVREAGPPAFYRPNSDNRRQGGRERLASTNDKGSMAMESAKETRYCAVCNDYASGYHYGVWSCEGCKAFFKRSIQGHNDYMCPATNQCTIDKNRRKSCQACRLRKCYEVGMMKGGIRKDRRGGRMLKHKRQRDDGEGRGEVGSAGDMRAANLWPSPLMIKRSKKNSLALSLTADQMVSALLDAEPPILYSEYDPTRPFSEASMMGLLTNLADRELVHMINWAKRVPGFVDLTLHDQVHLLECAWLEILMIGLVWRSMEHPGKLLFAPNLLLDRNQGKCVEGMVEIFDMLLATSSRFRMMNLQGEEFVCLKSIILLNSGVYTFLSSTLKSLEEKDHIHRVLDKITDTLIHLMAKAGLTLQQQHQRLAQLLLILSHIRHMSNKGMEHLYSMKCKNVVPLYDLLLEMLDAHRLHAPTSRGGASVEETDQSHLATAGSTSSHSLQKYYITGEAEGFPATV
Put plainly: Antagonist activity at estrogen receptor in human Ishikawa cells assessed as 17-beta-estradiol-induced alkaline phosphatase activity after 3 days by chemiluminescence assay. In kind it is functional, cell-based.

The target of assay [2] is T1, Estrogen receptor. Put plainly: Displacement of radiolabeled estrogen from estrogen receptor alpha by scintillation counting.

This is an account of results in ChEMBL document CHEMBL1153760, “Identification and structure-activity relationships of chromene-derived selective estrogen receptor modulators for treatment of postmenopausal symptoms” (J Med Chem, 2009).

In general, IC50 refers to the point on the concentration scale where inhibition reaches its midpoint. What is called inhibition in vivo is the relative decrease from the control value, in per cent.

Estrogen receptor beta, sequence (Q92731 whole entry): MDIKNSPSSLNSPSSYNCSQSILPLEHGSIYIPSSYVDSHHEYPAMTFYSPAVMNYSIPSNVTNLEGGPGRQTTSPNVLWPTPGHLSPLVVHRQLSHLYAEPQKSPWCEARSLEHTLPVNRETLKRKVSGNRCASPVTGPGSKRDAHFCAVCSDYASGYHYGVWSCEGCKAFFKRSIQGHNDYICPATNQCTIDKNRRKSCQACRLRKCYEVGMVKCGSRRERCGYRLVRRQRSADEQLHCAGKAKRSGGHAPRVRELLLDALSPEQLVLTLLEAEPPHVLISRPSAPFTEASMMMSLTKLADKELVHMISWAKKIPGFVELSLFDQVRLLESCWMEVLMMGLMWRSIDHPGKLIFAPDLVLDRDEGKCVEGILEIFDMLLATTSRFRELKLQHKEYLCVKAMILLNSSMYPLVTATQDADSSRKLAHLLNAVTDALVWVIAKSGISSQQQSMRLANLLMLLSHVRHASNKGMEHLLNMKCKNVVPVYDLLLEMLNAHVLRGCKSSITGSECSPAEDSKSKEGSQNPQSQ

As for `CCN(CC)CCOc1ccc([C@H]2Oc3ccccc3C3=C2c2ccc(O)cc2OCC3)cc1`, the results for the IC50 at Estrogen receptor beta, at Estrogen receptor [1] and on Estrogen receptor [2] were 0.108 µM, 0.113 µM and 0.005 µM, respectively. Further, the inhibition in vivo at 1 mg/kg in the assay listed under Rattus norvegicus turned out to be 80%.
On to `Oc1ccc2c(c1)O[C@H](c1ccc(OCCN3CCCCCC3)cc1)C1=C2CCOc2ccccc21`, for which the figures for the IC50 at Estrogen receptor beta, at Estrogen receptor [1] and on Estrogen receptor [2] were 0.14 µM, 2.67 µM and 0.085 µM, respectively. Besides, the inhibition in vivo at 1 mg/kg in the assay filed under Rattus norvegicus was found to be 11%.
Taken in the same sequence, the figures for `Oc1ccc2c(c1)OCCC1=C2[C@@H](c2ccc(OCCN3CCCCCC3)cc2)Oc2cc(F)ccc21` were 0.066 µM, 0.081 µM, 0.0033 µM and 22%.
For `Oc1ccc2c(c1)O[C@H](c1cccc(OCCN3CCSCC3)c1)C1=C2CCOc2cc(O)ccc21`, the figures for the IC50 at Estrogen receptor beta, on Estrogen receptor [1] and at Estrogen receptor [2] were greater than 1 µM, greater than 10 µM and greater than 1 µM, respectively.
Regarding `Oc1ccc2c(c1)O[C@H](c1cccc(OCCN3CCCCC3)c1)C1=C2CCOc2cc(O)ccc21`, the IC50 on Estrogen receptor beta is 0.38 µM; at Estrogen receptor [1] it was greater than 10 µM; on Estrogen receptor [2], 0.15 µM. Further, the inhibition in vivo at 1 mg/kg in the assay filed under Rattus norvegicus was 0%.
Consider `CN1CCN(CCOc2ccc([C@@H]3Oc4cc(O)ccc4C4=C3c3ccc(O)cc3OCC4)cc2)CC1`, for which the IC50 is 0.58 µM on Estrogen receptor beta, greater than 10 µM on Estrogen receptor [1] and 0.312 µM on Estrogen receptor [2]. In addition, the inhibition in vivo at 1 mg/kg in the assay listed under Rattus norvegicus is 5%.
For `Oc1ccc2c(c1)OCCC1=C2[C@H](c2ccc(OCCN3CCCCCC3)cc2)Oc2cc(F)ccc21` the same measures were 0.031 µM, 0.161 µM, 0.005 µM and 33%.
For `Oc1ccc2c(c1)O[C@@H](c1ccc(OCCN3CCCC3)cc1)C1=C2CCOc2cc(O)ccc21` the same measures were 0.0087 µM, 0.165 µM, 0.0025 µM and 20%.
Consider `CN(C)CCOc1ccc([C@@H]2Oc3cc(O)ccc3C3=C2c2ccccc2OCC3)cc1`, for which the concentration for half-maximal inhibition (IC50) on Estrogen receptor beta was 0.03 µM; on Estrogen receptor [1], 0.158 µM; at Estrogen receptor [2], 0.0111 µM. Besides, in the assay filed under Rattus norvegicus, the inhibition in vivo at 1 mg/kg turned out to be 20%.
For the compound `Oc1ccc2c(c1)O[C@@H](c1cccc(OCCN3CCSCC3)c1)C1=C2CCOc2cc(O)ccc21`, the IC50 was greater than 1 µM at Estrogen receptor beta, greater than 10 µM on Estrogen receptor [1] and greater than 1 µM at Estrogen receptor [2].
For `Oc1ccc2c(c1)O[C@H](c1ccc(OCCN3CCCC3)cc1)C1=C2CCOc2cc(O)ccc21`, the half-maximal inhibitory concentration (IC50) on Estrogen receptor beta came to 0.014 µM; on Estrogen receptor [1], 0.01 µM; at Estrogen receptor [2] it was 0.0012 µM. Moreover, the inhibition in vivo at 1 mg/kg in the assay filed under Rattus norvegicus stood at 10%.
For `COc1ccc2c(c1)OCCC1=C2[C@H](c2ccc(OCCN3CCCCC3)cc2)Oc2cc(O)ccc21` the same measures were 0.024 µM, 0.15 µM, 0.0042 µM and 20%.
In the case of `CN1CCN(CCOc2cccc([C@H]3Oc4cc(O)ccc4C4=C3c3ccc(O)cc3OCC4)c2)CC1`, the IC50 on Estrogen receptor beta is greater than 1 µM; on Estrogen receptor [1] it was greater than 10 µM; at Estrogen receptor [2], greater than 1 µM.
For `Oc1ccc2c(c1)O[C@@H](c1ccc(OCCN3CCCCCC3)cc1)C1=C2CCOc2ccccc21`, the IC50 was 0.041 µM at Estrogen receptor beta, 0.144 µM on Estrogen receptor [1] and 0.004 µM at Estrogen receptor [2]. For the same compound, the inhibition in vivo at 1 mg/kg in the assay filed under Rattus norvegicus amounted to 7%.
Taken in the same sequence, the figures for `O=C1CCC(=O)N1CCOc1ccc([C@H]2Oc3cc(O)ccc3C3=C2c2ccc(O)cc2OCC3)cc1` were 0.00064 µM, greater than 10 µM, 0.0048 µM and 0%.
For `Oc1ccc2c(c1)O[C@@H](c1ccc(OCCN3CCCCC3)cc1)C1=C2CCOc2ccccc21` the same measures were 0.063 µM, 0.0259 µM, 0.0063 µM and 12%.
Regarding `COc1ccc2c(c1)O[C@@H](c1ccc(OCCN3CCCCC3)cc1)C1=C2CCOc2cc(OC)ccc21`, the IC50 on Estrogen receptor beta, at Estrogen receptor [1] and at Estrogen receptor [2] was greater than 10 µM each time. For the same compound, in the assay filed under Rattus norvegicus, the inhibition in vivo at 1 mg/kg was 7%.
With `CC(C)N(CCOc1ccc([C@H]2Oc3cc(O)ccc3C3=C2c2ccc(O)cc2OCC3)cc1)C(C)C`, the IC50 at Estrogen receptor beta was 0.02 µM; on Estrogen receptor [1], 0.287 µM; at Estrogen receptor [2], 0.0054 µM. Moreover, the inhibition in vivo at 1 mg/kg in the assay listed under Rattus norvegicus stood at 30%.
Taken in the same sequence, the figures for `Oc1ccc2c(c1)OC(c1ccc(OCCN3CCCCC3)cc1)C1=C2CCCOc2cc(O)ccc21` (single isomer, unassigned; (+)) were 0.077 µM, 0.121 µM, 0.023 µM and 33%.
Regarding `CN1CCN(CCOc2cccc([C@@H]3Oc4cc(O)ccc4C4=C3c3ccc(O)cc3OCC4)c2)CC1`, the IC50 at Estrogen receptor beta is greater than 1 µM; at Estrogen receptor [1], greater than 10 µM; at Estrogen receptor [2], greater than 1 µM.
With `CCN(CC)CCOc1ccc([C@H]2Oc3cc(F)ccc3C3=C2c2ccc(O)cc2OCC3)cc1`, the IC50 on Estrogen receptor beta was 0.108 µM; on Estrogen receptor [1], 0.113 µM; on Estrogen receptor [2], 0.005 µM. Besides, the inhibition in vivo at 1 mg/kg in the assay filed under Rattus norvegicus was determined as 80%.
Take `Oc1ccc2c(c1)O[C@@H](c1ccc(OCCN3CCCCCC3)cc1)C1=C2CCOc2cc(O)ccc21`: the IC50 at Estrogen receptor beta was 0.0134 µM. Also, the inhibition in vivo at 1 mg/kg in the assay filed under Rattus norvegicus amounted to 50%.
As to `Oc1ccc2c(c1)O[C@H](c1ccc(OCCCN3CCCCC3)cc1)C1=C2CCOc2cc(O)ccc21`, the IC50 is 0.031 µM at Estrogen receptor beta, 0.42 µM on Estrogen receptor [1] and 0.022 µM on Estrogen receptor [2]. Also, the inhibition in vivo at 1 mg/kg in the assay listed under Rattus norvegicus stood at 23%.
For `CN1CCN(CCOc2ccc([C@H]3Oc4cc(O)ccc4C4=C3c3ccc(O)cc3OCC4)cc2)CC1` the same measures were 0.086 µM, 0.09 µM, 0.0087 µM and 30%.
For `COc1ccc2c(c1)O[C@@H](c1ccc(OCCN3CCCCC3)cc1)C1=C2CCOc2cc(O)ccc21` the same measures were 0.063 µM, 0.0259 µM, 0.0063 µM and 12%.
For `OCCOc1ccc(C2Oc3cc(O)ccc3C3=C2c2ccc(O)cc2OCC3)cc1` (stereo not drawn), the IC50 was 0.011 µM on Estrogen receptor beta, greater than 10 µM at Estrogen receptor [1] and 0.31 µM on Estrogen receptor [2]. Besides, the inhibition in vivo at 1 mg/kg in the assay listed under Rattus norvegicus is 0%.
For `CN(C)CCOc1ccc([C@H]2Oc3cc(O)ccc3C3=C2c2ccc(O)cc2OCC3)cc1` the same measures were 0.023 µM, 0.061 µM, 0.0033 µM and 25%.
Take `O=C1CCC(=O)N1CCCOc1ccc([C@H]2Oc3cc(O)ccc3C3=C2c2ccc(O)cc2OCC3)cc1`: the concentration for half-maximal inhibition (IC50) on Estrogen receptor beta was 0.0127 µM; at Estrogen receptor [1], greater than 10 µM; on Estrogen receptor [2], 0.00263 µM. In addition, in the assay filed under Rattus norvegicus, the inhibition in vivo at 1 mg/kg came to 0%.
Taken in the same sequence, the figures for `O=C(O)CCOc1ccc([C@@H]2Oc3cc(O)ccc3C3=C2c2ccc(O)cc2OCC3)cc1` were 0.044 µM, greater than 10 µM, 0.58 µM and 0%.
Consider `Oc1ccc2c(c1)OCCC1=C2[C@@H](c2ccc(OCCN3CCCCC3)cc2)Oc2ccccc21`, for which the figures for the IC50 on Estrogen receptor beta, on Estrogen receptor [1] and at Estrogen receptor [2] were 0.099 µM, 0.076 µM and 0.0058 µM, respectively. The inhibition in vivo at 1 mg/kg in the assay filed under Rattus norvegicus was 130%.
For `Oc1ccc2c(c1)O[C@H](c1ccc(OCCN3CCOCC3)cc1)C1=C2CCOc2cc(O)ccc21` the same measures were 0.035 µM, 0.043 µM, 0.0016 µM and 40%.
On Estrogen receptor beta, `Oc1ccc2c(c1)O[C@H](c1ccc(OCCN3CCCCCC3)cc1)C1=C2CCOc2cc(O)ccc21` registered an IC50 of 0.019 µM. Also, the inhibition in vivo at 1 mg/kg in the assay listed under Rattus norvegicus came to 60%.
Consider `Oc1ccc2c(c1)O[C@@H](c1ccc(OCCCN3CCCCC3)cc1)C1=C2CCOc2cc(O)ccc21`, for which the IC50 at Estrogen receptor beta was determined as 0.019 µM; at Estrogen receptor [1] it was 0.59 µM; at Estrogen receptor [2] it was 0.055 µM. The inhibition in vivo at 1 mg/kg in the assay filed under Rattus norvegicus turned out to be 15%.
For `CCN(CC)CCOc1ccc([C@@H]2Oc3cc(F)ccc3C3=C2c2ccc(O)cc2OCC3)cc1` the same measures were 0.011 µM, 0.122 µM, 0.007 µM and 11%.
Take `CN(C)CCOc1ccc([C@H]2Oc3cc(O)ccc3C3=C2c2ccccc2OCC3)cc1`: the IC50 was 0.205 µM on Estrogen receptor beta, 8.99 µM on Estrogen receptor [1] and 0.18 µM at Estrogen receptor [2]. The inhibition in vivo at 1 mg/kg in the assay filed under Rattus norvegicus is 23%.
Taken in the same sequence, the figures for `O=C1CCC(=O)N1CCOc1ccc([C@@H]2Oc3cc(O)ccc3C3=C2c2ccc(O)cc2OCC3)cc1` were 0.0186 µM, greater than 10 µM, 0.0062 µM and 0%.
Consider `CN(C)CCOc1ccc([C@H]2Oc3ccccc3C3=C2c2ccc(O)cc2OCC3)cc1`, for which the IC50 on Estrogen receptor beta was 0.105 µM. In addition, the inhibition in vivo at 1 mg/kg in the assay listed under Rattus norvegicus came out at 55%.
